Data on 25 compounds can be found in patent US9216981B2, “Purinylpyridinylamino-2,4-difluorophenyl sulfonamide derivative, pharmaceutically acceptable salt thereof, preparation method thereof, and pharmaceutical composition with inhibitory activity against Raf kinase, containing same as active ingredient” (Medpacto, Inc., priority 2010, dated 2015).

One assay concerns A375P cell line. The assay can be described thus: B-Raf cell activity inhibition (A375P growth inhibition, MTT assay). Format: cell-based. The following applies: A375P human melanoma, V600E mutant of B-Raf, 72 hours. On the procedure:
To check the B-Raf cell activity inhibitory capability of the compounds of the present invention, the following experiments were conducted in A375P cell line (ATCC). […] A375 cell was maintained in DMEM supplemented with 10% fetal bovine serum, glutamine (2 mM), penicillin (100 U/mL), and streptomycin (100 μg/mL). The cell was maintained at 37° C., and in 5% CO2 and 100% humidity. To conduct the growth inhibition test, the cell was plated by using a white 384-well microplate, with 1000 cells/20 μl plated per 1 well. After 24 hours, 5 μl of 5× stock solution of drug was added. All the drugs were initially prepared with 200× stock solution in DMSO, and the final concentration of DMSO was 0.5%. The cell was incubated at 37° C. for 72 hours. For MTT assay, ‘CellTiter 96 (R) Non-Radioactive Cell Proliferation Assay (G4100)’ kit by Promega Corp. was used. 15 μl of dye solution of the Promega kit was put into each well and was cultured in the incubator for 4 hours. And 100 μl of each Solubilization/Stop Solution substance of the kit was added and fixed in the incubator for 24 hours again. And then, absorbance was measured by using a 96-well plate reader with 570 nm of absorbance.
In general terms: Formazan colour is commonly taken as a measure of viable cells.

The target of the next assay is B-Raf (Homo sapiens (Human), UniProt P15056). The assay can be described thus: B-Raf kinase activity (B-Raf/MEK1/MAPK2 cascade, MBP phosphorylation, [γ-32P]ATP). Format: biochemical. The following applies: activated B-Raf, inactivated MEK1, inactivated MAPK2, 30° C., 30 minutes, read-out: B-Raf Enzyme Activity. As for the experimental part: To check the B-Raf kinase inhibitory activity of the compounds of the present invention, the following experiments were conducted.
20 μl of diluting solvent (20 mM MOPS, pH 7.2, 25 mM β-glycerol phosphate, 5 mM EGTA, 1 mM sodium orthovanadate, 1 mM dithiothreitol) and 10 μl of Mg/ATP mixed solution (500 μM ATP, 75 mM magnesium chloride) were added into a centrifuge tube, the derivative compound of Formula 1 was added or the compounds of the Examples were not added as a control group, and then 1 ng of activated B-Raf, 0.4 ng of inactivated MEK1, and 1 μg of inactivated MAPK2 were added. The solutions in the tube were collected on the bottom via centrifugation and were reacted at 30° C. for 30 minutes. After taking 4 μl of the mixed solution, the test proceeded to the next step.
(2) Phosphorylation of Matrix Protein MBP by MAPK2
10 μl of diluting solvent, 20 μg of MBP used as a matrix, and 10 μl of diluted [γ-32P]ATP (1 μCi/μL) were added into the 4 μl of the mixed solution obtained from (1). The solutions in the tube were collected on the bottom via centrifugation and were reacted at 30° C. for 30 minutes. And 25 μl of the reacted solution was put carefully on the center of a filter paper (2 cm×2 cm P81) for 30 seconds. Afterwards, the filter paper was cleaned with 0.75% phosphoric acid for 10 minutes three times and with acetone for 5 minutes one time. The filter paper was then moved to a scintillation vial and 5 ml of scintillation cocktail was added thereto. The inhibition rate (IC50) over B-Raf activity was measured by reading radioactivity through a scintillation counter while comparing to the control group.

Sequence of B-Raf (P15056 whole entry): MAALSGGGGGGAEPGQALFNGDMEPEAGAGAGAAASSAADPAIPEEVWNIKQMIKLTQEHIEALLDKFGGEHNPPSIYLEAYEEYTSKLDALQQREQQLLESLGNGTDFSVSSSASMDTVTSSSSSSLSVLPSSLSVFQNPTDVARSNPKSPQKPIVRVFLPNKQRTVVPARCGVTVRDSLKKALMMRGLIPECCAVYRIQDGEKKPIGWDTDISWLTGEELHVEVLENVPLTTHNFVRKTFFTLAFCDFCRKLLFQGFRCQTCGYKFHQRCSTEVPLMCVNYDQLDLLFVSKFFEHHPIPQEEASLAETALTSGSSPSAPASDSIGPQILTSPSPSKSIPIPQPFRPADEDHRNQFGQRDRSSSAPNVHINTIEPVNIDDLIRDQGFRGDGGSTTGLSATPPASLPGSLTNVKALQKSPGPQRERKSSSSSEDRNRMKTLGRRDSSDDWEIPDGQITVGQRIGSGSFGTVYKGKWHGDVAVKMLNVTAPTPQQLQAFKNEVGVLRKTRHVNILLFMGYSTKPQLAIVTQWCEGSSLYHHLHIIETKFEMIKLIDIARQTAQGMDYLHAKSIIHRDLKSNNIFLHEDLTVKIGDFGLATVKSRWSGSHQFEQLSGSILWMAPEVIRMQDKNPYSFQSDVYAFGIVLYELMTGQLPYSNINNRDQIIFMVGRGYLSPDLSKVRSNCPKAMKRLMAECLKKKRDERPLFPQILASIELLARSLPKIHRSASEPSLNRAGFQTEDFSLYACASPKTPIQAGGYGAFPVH

Regarding `O=S(=O)(Nc1ccc(F)c(Nc2ncccc2-c2ncnc3[nH]cnc23)c1F)c1ccccc1Cl` [Example 32, N-(3-(3-(9H-purin-6-yl)pyridin-2-ylamino)-2,4-difluorophenyl)-2-chloro benzenesulfonamide], the IC50 with A375P cell line was 440 nM; at B-Raf, 30 nM.
On the same counts, the results for `O=S(=O)(Nc1ccc(F)c(Nc2ncccc2-c2ncnc3[nH]cnc23)c1F)c1cc2ccccc2o1` [Example 7, N-(3-(3-(9H-purin-6-yl)pyridin-2-ylamino)-2,4-difluorophenyl)benzofuran-2-sulfonamide] are 4300 nM and 832 nM.
In the same order, the values of `CC(C)S(=O)(=O)Nc1ccc(F)c(Nc2ncccc2-c2ncnc3[nH]cnc23)c1F` [Example 1, N-(3-(3-(9H-purin-6-yl)pyridin-2-ylamino)-2,4-difluorophenyl)propane-2-sulfonamide] are 120 nM and 17 nM.
On the same counts, the results for `Cc1ccccc1S(=O)(=O)Nc1ccc(F)c(Nc2ncccc2-c2ncnc3[nH]cnc23)c1F` [Example 31, N-(3-(3-(9H-purin-6-yl)pyridin-2-ylamino)-2,4-difluorophenyl)-2-methylbenzenesulfonamide] are 670 nM and 50 nM.
Take `O=S(=O)(Nc1ccc(F)c(Nc2ncccc2-c2ncnc3[nH]cnc23)c1F)C1CC1` [Example 19, N-(3-(3-(9H-purin-6-yl)pyridin-2-ylamino)-2,4-difluorophenyl)cyclopropansulfonamide]: the IC50 with A375P cell line is 250 nM; on B-Raf it was 50 nM.
On the same counts, the results for `Cc1cc(S(=O)(=O)Nc2ccc(F)c(Nc3ncccc3-c3ncnc4[nH]cnc34)c2F)c(C)o1` [Example 25, N-(3-(3-(9H-purin-6-yl)pyridin-2-ylamino)-2,4-difluorophenyl)-2,5-dimethylfuran-3-sulfonamide] are 100 nM and 15 nM.
In the same order, the values of `Cn1cnc(S(=O)(=O)Nc2ccc(F)c(Nc3ncccc3-c3ncnc4[nH]cnc34)c2F)c1` [Example 22, N-(3-(3-(9H-purin-6-yl)pyridin-2-ylamino)-2,4-difluorophenyl)-1-methyl-1-imidazole-4-sulfonamide] are 1000 nM and 1800 nM.
In the same order, the values of `O=S(=O)(Nc1ccc(F)c(Nc2ncccc2-c2ncnc3[nH]cnc23)c1F)C1CCCCC1` [Example 11, N-(3-(3-(9H-purin-6-yl)pyridin-2-ylamino)-2,4-difluorophenyl)cyclohexanesulfonamide] are 340 nM and 206 nM.
Take `COc1ccc(S(=O)(=O)Nc2ccc(F)c(Nc3ncccc3-c3ncnc4[nH]cnc34)c2F)cc1OC` [Example 10, N-(3-(3-(9H-purin-6-yl)pyridin-2-ylamino)-2,4-difluorophenyl)-3,4-dimethoxybenzenesulfonamide]: the results for the IC50 with A375P cell line and on B-Raf were 10200 nM and 1200 nM, respectively.
As to `O=S(=O)(Nc1ccc(F)c(Nc2ncccc2-c2ncnc3[nH]cnc23)c1F)c1cccc2c1OCC2` [Example 36, N-(3-(3-(9H-purin-6-yl)pyridin-2-ylamino)-2,4-difluorophenyl)-2,3-dihydrobenzofuran-7-sulfonamide], the IC50 was 8370 nM with A375P cell line and 1020 nM on B-Raf.
As to `Cn1cc(S(=O)(=O)Nc2ccc(F)c(Nc3ncccc3-c3ncnc4[nH]cnc34)c2F)cn1` [Example 43, N-(3-(3-(9H-purin-6-yl)pyridin-2-ylamino)-2,4-difluorophenyl)-1-methyl-1H-pyrazole-4-sulfonamide], the IC50 with A375P cell line is 1370 nM; at B-Raf, 120 nM.
In the same order, the values of `Cc1nc2ccc(S(=O)(=O)Nc3ccc(F)c(Nc4ncccc4-c4ncnc5[nH]cnc45)c3F)cc2s1` [Example 39, N-(3-(3-(9H-purin-6-yl)pyridin-2-ylamino)-2,4-difluorophenyl)-2-methylbenzo[d]thiazole-6-sulfonamide] are 2930 nM and 400 nM.
On the same counts, the results for `Cc1ccc(S(=O)(=O)Nc2ccc(F)c(Nc3ncccc3-c3ncnc4[nH]cnc34)c2F)o1` [Example 23, N-(3-(3-(9H-purin-6-yl)pyridin-2-ylamino)-2,4-difluorophenyl)-5-methylfuran-2-sulfonamide] are 60 nM and 15 nM.
For `O=S(=O)(Nc1ccc(F)c(Nc2ncccc2-c2ncnc3[nH]cnc23)c1F)c1ccc(C(F)(F)F)cc1` [Example 3, N-(3-(3-(9H-purin-6-yl)pyridin-2-ylamino)-2,4-difluorophenyl)-4-(trifluoromethyl)benzenesulfonamide], the IC50 in the assay on A375P cell line was found to be 5200 nM; at B-Raf it was 30 nM.
In the same order, the values of `O=S(=O)(Nc1ccc(F)c(Nc2ncccc2-c2ncnc3[nH]cnc23)c1F)c1cccc(C(F)(F)F)c1` [Example 2, N-(3-(3-(9H-purin-6-yl)pyridin-2-ylamino)-2,4-difluorophenyl)-3-(trifluoromethyl)benzenesulfonamide] are 230 nM and 8.8 nM.
For the compound `O=S(=O)(Nc1ccc(F)c(Nc2ncccc2-c2ncnc3[nH]cnc23)c1F)c1ccc(Cl)c(Cl)c1` [Example 6, N-(3-(3-(9H-purin-6-yl)pyridin-2-ylamino)-2,4-difluorophenyl)-3,4-dichlorobenzenesulfonamide], the IC50 in the assay with A375P cell line was 2800 nM; at B-Raf it was 720 nM.
In the same order, the values of `O=S(=O)(Nc1ccc(F)c(Nc2ncccc2-c2ncnc3[nH]cnc23)c1F)c1cccc(Cl)c1F` [Example 29, N-(3-(3-(9H-purin-6-yl)pyridin-2-ylamino)-2,4-difluorophenyl)-3-chloro-2-fluorobenzenesulfonamide] are 720 nM and 80 nM.
In the case of `Cn1ccc2c(S(=O)(=O)Nc3ccc(F)c(Nc4ncccc4-c4ncnc5[nH]cnc45)c3F)cccc21` [Example 41, N-(3-(3-(9H-purin-6-yl)pyridin-2-ylamino)-2,4-difluorophenyl)-1-methyl-1H-indole-4-sulfonamide], the values for the IC50 in the assay with A375P cell line and at B-Raf were 4200 nM and 550 nM, respectively.
In the same order, the values of `O=S(=O)(Nc1ccc(F)c(Nc2ncccc2-c2ncnc3[nH]cnc23)c1F)c1ccc(OC(F)(F)F)cc1` [Example 12, N-(3-(3-(9H-purin-6-yl)pyridin-2-ylamino)-2,4-difluorophenyl)-4-(trifluoromethoxy)benzenesulfonamide] are 600 nM and 610 nM.
In the same order, the values of `O=S(=O)(Nc1ccc(F)c(Nc2ncccc2-c2ncnc3[nH]cnc23)c1F)c1ccco1` [Example 15, N-(3-(3-(9H-purin-6-yl)pyridin-2-ylamino)-2,4-difluorophenyl)furan-2-sulfonamide] are 11000 nM and 1 nM.
As for `O=S(=O)(Nc1ccc(F)c(Nc2ncccc2-c2ncnc3[nH]cnc23)c1F)c1ccc(Cl)s1` [Example 44], the IC50 with A375P cell line turned out to be 200 nM.
On to `O=S(=O)(Nc1ccc(F)c(Nc2ncccc2-c2ncnc3[nH]cnc23)c1F)c1ccsc1` [Example 17, N-(3-(3-(9H-purin-6-yl)pyridin-2-ylamino)-2,4-difluorophenyl)thiophene-3-sulfonamide], for which the figures for the IC50 in the assay with A375P cell line and on B-Raf were 40 nM and 7 nM, respectively.
In the same order, the values of `O=S(=O)(Nc1ccc(F)c(Nc2ncccc2-c2ncnc3[nH]cnc23)c1F)c1cccc2ccoc12` [Example 37, N-(3-(3-(9H-purin-6-yl)pyridin-2-ylamino)-2,4-difluorophenyl)benzofuran-7-sulfonamide] are 810 nM and 90 nM.
In the same order, the values of `O=S(=O)(Nc1ccc(F)c(Nc2ncccc2-c2ncnc3[nH]cnc23)c1F)c1cccs1` [Example 4, N-(3-(3-(9H-purin-6-yl)pyridin-2-ylamino)-2,4-difluorophenyl)thiophene-2-sulfonamide] are 30 nM and 12 nM.
Consider `O=[N+]([O-])c1ccccc1CS(=O)(=O)Nc1ccc(F)c(Nc2ncccc2-c2ncnc3[nH]cnc23)c1F` [Example 9, N-(3-(3-(9H-purin-6-yl)pyridin-2-ylamino)-2,4-difluorophenyl)-1-(2-nitrophenyl)methansulfonamide], for which, on B-Raf, the IC50 worked out at 1500 nM.
